Patent US20240279278A1, “NMU RECEPTOR 2 AGONISTS” (Boehringer Ingelheim International GmbH, priority 2023, published 2024)
Starred links: 1 amine or outer side, 2 acyl side, 3 side chain; linkers in the order of their positions; H or OH if unused. Non-standard residues stand in square brackets, D forms with d. Residues, ends and D or L forms follow the SMILES beside them. *: point of attachment. Pipz(1-CH2CO,4-CH2CH2NH) = O=C(CN1CCN(CCN[*:1])CC1)[*:2]; C18 diacid = O=C(O)CCCCCCCCCCCCCCCCC(=O)*; γGlu = O=C(O)[C@H](CCC(=O)[*:2])N[*:1]; 2Pal = N[C@@H](Cc1ccccn1)C(=O)O; 3Pal = N[C@@H](Cc1cccnc1)C(=O)O; NMeL = CN[C@@H](CC(C)C)C(=O)O; NMeA = CN[C@@H](C)C(=O)O; Nle = CCCC[C@H](N)C(=O)O; Sar = CNCC(=O)O

Tests used:
Format in all cases: cell-based
human NMUR1 receptor = molecular target: T1, human NMUR1 receptor (Homo sapiens, UniProt Q9HB89); assay: IP1 Gq HTRF assay, activation of human NMUR1 in buffer; conditions: CHO-K1 cells expressing human NMUR1, stimulation buffer with 0.1% BSA; read-out: EC50 (hNMUR1) buffer
T1 construct: expressed in transfected cells; host or cells: CHO-K1
T1 sequence (Q9HB89 1-426): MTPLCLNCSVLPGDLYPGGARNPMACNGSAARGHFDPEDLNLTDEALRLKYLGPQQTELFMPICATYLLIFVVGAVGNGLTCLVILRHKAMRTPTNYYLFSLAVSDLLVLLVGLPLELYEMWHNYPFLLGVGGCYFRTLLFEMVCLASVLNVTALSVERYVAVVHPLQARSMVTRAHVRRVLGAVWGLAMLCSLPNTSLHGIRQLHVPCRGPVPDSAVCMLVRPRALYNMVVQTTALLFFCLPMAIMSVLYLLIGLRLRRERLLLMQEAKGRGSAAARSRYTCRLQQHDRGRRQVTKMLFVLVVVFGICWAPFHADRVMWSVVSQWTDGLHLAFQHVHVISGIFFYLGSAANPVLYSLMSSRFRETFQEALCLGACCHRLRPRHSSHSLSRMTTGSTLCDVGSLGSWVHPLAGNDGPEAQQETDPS
Method in brief: (§1)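 CHO-K1 cells stably expressing human NMUR1 or NMUR2, seeded 24 h before assay, stimulated with peptide agonists (8-point dose-response, 1% DMSO final) in HEPES/HBSS buffer with 50 mM LiCl and 0.1% BSA, pH 7.4, 1 h at 37 °C. IP1 accumulation read by HTRF competition (665/620 nm); EC50 from 4-parameter sigmoidal fit.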

human NMUR2 receptor [1] = molecular target: T2, human NMUR2 receptor (Homo sapiens, UniProt Q9GZQ4); assay: IP1 Gq HTRF assay, activation of human NMUR2 in buffer; set-up: expressed in transfected cells; host or cells: CHO-K1; conditions: CHO-K1 cells expressing human NMUR2, stimulation buffer with 0.1% BSA; read-out: EC50 (hNMUR2) buffer
T2 sequence (Q9GZQ4 whole entry): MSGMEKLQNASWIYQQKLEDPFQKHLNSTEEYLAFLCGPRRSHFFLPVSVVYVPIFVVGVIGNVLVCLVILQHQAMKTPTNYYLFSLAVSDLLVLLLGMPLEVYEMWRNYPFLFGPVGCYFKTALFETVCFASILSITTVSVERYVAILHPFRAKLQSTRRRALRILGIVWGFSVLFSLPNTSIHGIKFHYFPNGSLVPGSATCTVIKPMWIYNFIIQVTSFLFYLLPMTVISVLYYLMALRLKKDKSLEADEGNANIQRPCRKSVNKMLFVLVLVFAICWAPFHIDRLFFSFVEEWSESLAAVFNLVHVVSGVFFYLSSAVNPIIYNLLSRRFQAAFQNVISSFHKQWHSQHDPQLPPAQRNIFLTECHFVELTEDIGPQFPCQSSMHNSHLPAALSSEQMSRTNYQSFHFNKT
Method in brief: as §1

human NMUR2 receptor [2] = molecular target: T2, human NMUR2 receptor; assay: IP1 Gq HTRF assay, activation of human NMUR2 in human plasma; set-up: expressed in transfected cells; host or cells: CHO-K1; conditions: CHO-K1 cells expressing human NMUR2, 100% human plasma; read-out: EC50 (hNMUR2) human plasma
Method in brief: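 CHO-K1 cells stably expressing human NMUR2 exposed to peptide agonists (8-point dose-response) in 100% human plasma with 50 mM LiCl, 1% DMSO, for 1 h at 37° C. IP1 accumulation read by HTRF competition (665/620 nm ratio). EC50 from 4-parameter sigmoidal fit.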

Row | EC50 (human NMUR1 receptor) | EC50 (human NMUR2 receptor [1]) | EC50 (human NMUR2 receptor [2]) | Structure (SMILES)
1 | > 1000 nM | 72 nM | 432 nM | CCCC[C@H](NC(=O)[C@H](CC(C)C)N(C)C(=O)[C@H](Cc1ccccc1)NC(=O)[C@H](Cc1ccc(O)cc1)NC(=O)CN1CCN(CCNC(=O)CN(C)C(=O)CN(C)C(=O)CN(C)C(=O)CN(C)C(=O)CN(C)C(=O)CN(C)C(=O)CN(C)C(=O)CN(C)C(=O)CN(C)C(=O)CN(C)C(=O)CN(C)C(=O)CN(C)C(=O)CN(C)C(=O)CN(C)C(=O)CN(C)C(=O)CC[C@H](NC(=O)CC[C@H](NC(=O)CC[C@H](NC(=O)CCCCCCCCCCCCCCCCC(=O)O)C(=O)O)C(=O)O)C(=O)O)CC1)C(=O)N[C@@H](Cc1ccccn1)C(=O)N1CCC[C@H]1C(=O)N[C@@H](CCCNC(=N)N)C(=O)NCC(N)=O [Compound 56, C18DA-gGlu3-Sar15-AEPipAc-Tyr-Phe-NMeLeu-Nle-2Pal-Pro-Arg-Gly-NH2] ({C18 diacid-γGlu-γGlu-γGlu}-[Sar][Sar][Sar][Sar][Sar][Sar][Sar][Sar][Sar][Sar][Sar][Sar][Sar][Sar][Sar][Pipz(1-CH2CO,4-CH2CH2NH)]YF[NMeL][Nle][2Pal]PRG-NH2)
2 | > 1000 nM | 110 nM | 509 nM | CCCC[C@H](NC(=O)[C@H](CC(C)C)N(C)C(=O)[C@H](Cc1ccccc1)NC(=O)[C@H](Cc1ccc(O)cc1)NC(=O)CN1CCN(CCNC(=O)CN(C)C(=O)CN(C)C(=O)CN(C)C(=O)CN(C)C(=O)CN(C)C(=O)CN(C)C(=O)CN(C)C(=O)CN(C)C(=O)CN(C)C(=O)CN(C)C(=O)CN(C)C(=O)CN(C)C(=O)CN(C)C(=O)CN(C)C(=O)CN(C)C(=O)CC[C@H](NC(=O)CC[C@H](NC(=O)CC[C@H](NC(=O)CCCCCCCCCCCCCCCCC(=O)O)C(=O)O)C(=O)O)C(=O)O)CC1)C(=O)N[C@@H](Cc1cccnc1)C(=O)N(C)[C@@H](C)C(=O)N[C@@H](CCCNC(=N)N)C(=O)NCC(N)=O [Compound 57, C18DA-gGlu3-Sar15-AEPipAc-Tyr-Phe-NMeLeu-Nle-3Pal-NMeAla-Arg-Gly-NH2] ({C18 diacid-γGlu-γGlu-γGlu}-[Sar][Sar][Sar][Sar][Sar][Sar][Sar][Sar][Sar][Sar][Sar][Sar][Sar][Sar][Sar][Pipz(1-CH2CO,4-CH2CH2NH)]YF[NMeL][Nle][3Pal][NMeA]RG-NH2)

Row | Structure (SMILES) | EC50 (human NMUR1 receptor) | EC50 (human NMUR2 receptor [1]) | EC50 (human NMUR2 receptor [2])
3 | CCCC[C@H](NC(=O)[C@H](CC(C)C)N(C)C(=O)[C@H](Cc1ccccc1)NC(=O)[C@H](Cc1ccc(O)cc1)NC(=O)CN1CCN(CCNC(=O)CN(C)C(=O)CN(C)C(=O)CN(C)C(=O)CN(C)C(=O)CN(C)C(=O)CN(C)C(=O)CN(C)C(=O)CN(C)C(=O)CN(C)C(=O)CN(C)C(=O)CN(C)C(=O)CN(C)C(=O)CN(C)C(=O)CN(C)C(=O)CN(C)C(=O)CC[C@H](NC(=O)CC[C@H](NC(=O)CC[C@H](NC(=O)CCCCCCCCCCCCCCCCC(=O)O)C(=O)O)C(=O)O)C(=O)O)CC1)C(=O)N[C@@H](Cc1c[nH]cn1)C(=O)N(C)[C@@H](C)C(=O)N[C@@H](CCCNC(=N)N)C(=O)NCC(N)=O [Compound 55, C18DA-gGlu3-Sar15-AEPipAc-Tyr-Phe-NMeLeu-Nle-His-NMeAla-Arg-Gly-NH2] (HELM PEPTIDE1{[O=C(O)CCCCCCCCCCCCCCCCC(=O)[*:2]].[gGlu].[gGlu].[gGlu].[Sar].[Sar].[Sar].[Sar].[Sar].[Sar].[Sar].[Sar].[Sar].[Sar].[Sar].[Sar].[Sar].[Sar].[Sar].[O=C(CN1CCN(CCN[*:1])CC1)[*:2]].Y.F.[meL].[Nle].H.[meA].R.G.[am]}$$$$V2.0) | > 1000 nM | 29 nM | 294 nM
